Reference: PMC11744575 (Advanced Science, 2024)
One block for each molecule: values may come before it.

Legend:
[1] = Pharmacokinetic profile of BBR and 6-OH-BBR in db/db and lean mice (plasma, liver); format: in vivo, mouse
Description: Briefly, blood samples (50 µL) were collected at different time points post‐drug administration (no more than three collections per mouse), centrifuged at 4 °C and 8000 g for 5 min, and the upper plasma layer was collected. At 2 and 24 h post‐dosing, the mice were sacrificed, and liver tissues were collected for cryopreservation and prepared as homogenates (W/V: 0.1 g·mL^−1) for drug concentration determinations.
(§1) Briefly, proteins in the samples were precipitated with three volumes of methanol containing an internal standard (chlorophenylalanine). After centrifugation at 30 000 g for 10 min at 4 °C, the supernatant was injected into the LC‐MS/MS system for analysis. Chromatographic separation was conducted using a ZORBAX 300SB C18 column (100 × 2.1 mm, 3.5 µm, Agilent, CA, USA) at 40 °C on a Shimadzu HPLC system.

[2] = tested on: peroxisome proliferator‐activated receptor gamma (PPARγ); set-up: method as in PMID 18274627; settings: cited from earlier work
[3] = tested on: peroxisome proliferator‐activated receptor alpha (PPARα); set-up: method as in PMID 18274627; settings: cited from earlier work
obese mice models = tested on: obese mice models; set-up: method as in PMID 29526820; settings: no comparable liver damage in healthy lean mice; cited from earlier work
[4] = BBR metabolism kinetics with liver S9 fractions; format: in vitro ADME, mouse; settings: for Km at 2 h: mouse, liver S9 fraction
Description: The incubations were carried out for 2 h at 37 °C in a 100 µL reaction volume containing the pooled liver S9 fraction (7.5 mg·mL^−1) and an NADPH‐regenerating system consisting of MgCl2 (40 mM), glucose‐6‐phosphate (40 µM), NADP^+ (8 µM), and glucose 6‐phosphate dehydrogenase (4 U·mL^−1). The reactions were terminated by the addition of 300 µL of ice‐cold acetonitrile containing the internal standard (chlorophenylalanine), followed by rigorous mixing and centrifugation. The supernatants were subsequently analyzed by LC‐MS/MS, employing methodologies detailed in previous publications.^[ [27] ^]
as §1

primary hepatocytes = experiment: Intracellular triglyceride content and BODIPY staining in primary hepatocytes; format: cell-based, mouse; settings: for effect of co-incubation on triglyceride levels within BBR-treated hepatocytes: co-incubation with BBR in the presence of OA
Description: To establish an in vitro model of hepatic steatosis, hepatocytes were treated with 0.2 mM oleic acid (OA, O7501, Sigma‐Aldrich) for 16 h. OA was pre‐incubated with 10% bovine serum albumin (BSA, Sigma‐Aldrich) (1:4) for 1 h and then added to the cell culture medium along with different compounds.
Primary hepatocytes were washed three times with phosphate‐buffered saline (PBS) and then subjected to three repeated freeze‐thaw cycles. The released intracellular triglyceride content was then measured using a commercial assay kit (Jiancheng). Protein content was used for normalization.
The lipid droplets in the hepatocytes in 6‐well plates were visualized by first washing the cells and then immersing them in a serum‐free medium. Subsequently, […] BODIPY 493/503 (Sigma‐Aldrich) was added to the medium, and the cells were incubated for 20 min for staining, followed by imaging with confocal microscopy (Olympus, Tokyo, Japan).

[5] = tested on: Primary cultured mouse hepatocytes; experiment: Cell viability (CCK8) cytotoxicity assay; format: cell-based
Description: C) BODIPY staining in different groups; images are shown under 600× or 1800× magnification, scale bar = 100 µm. D) Flow scheme of RNA sequencing.
Primary hepatocytes were isolated from the livers of 6‐week‐old male C57BL/6J mice as previously described.^[ [25] ^] Briefly, the liver was thoroughly digested by injection of type IV collagenase (C4‐BIOC, Sigma‐Aldrich, Louis, MO, USA) via the portal vein. The perfused liver was excised, dispersed, and filtered through a 70 µm filter, and the digestion was terminated by adding cold Dulbecco's modified Eagle's medium (DMEM, #11 960 044, Gibco, Grand Island, NY, USA). The cell suspension was centrifuged at 4 °C at 50 g for 5 min to remove the supernatant and debris. An equal volume of DMEM and Percoll (CAS 65455‐52‐9, Sigma‐Aldrich) was then mixed thoroughly and centrifuged at 50 g for 15 min at 4 °C. The viable cell layer at the bottom was collected and further centrifuged in DMEM to prepare the cell seeding plate. Cells were seeded in a 6‐well plate at a density of 1 × 10^6 cells per well and cultured in DMEM medium supplemented with 10% fetal bovine serum (FBS, Gibco) at 37 °C in a 5% CO2 incubator.

db/db mice = experiment: 4-week administration in db/db mice (liver injury, steatosis, glucose profiles); format: in vivo, mouse
livers of healthy rats = tested on: livers of healthy rats; set-up: method as in PMID 1701930; settings: up to 102 weeks of treatment; cited from earlier work
[6] = target: T1, recombinant human PPARγ protein (Homo sapiens, UniProt P37231); experiment: MicroScale Thermophoresis (MST) of rosiglitazone binding with/without BBR; settings: rosiglitazone affinity in presence/absence of BBR
T1 construct: purchased Sino Biotechnology, Beijing, China
T1 sequence (P37231 1-505): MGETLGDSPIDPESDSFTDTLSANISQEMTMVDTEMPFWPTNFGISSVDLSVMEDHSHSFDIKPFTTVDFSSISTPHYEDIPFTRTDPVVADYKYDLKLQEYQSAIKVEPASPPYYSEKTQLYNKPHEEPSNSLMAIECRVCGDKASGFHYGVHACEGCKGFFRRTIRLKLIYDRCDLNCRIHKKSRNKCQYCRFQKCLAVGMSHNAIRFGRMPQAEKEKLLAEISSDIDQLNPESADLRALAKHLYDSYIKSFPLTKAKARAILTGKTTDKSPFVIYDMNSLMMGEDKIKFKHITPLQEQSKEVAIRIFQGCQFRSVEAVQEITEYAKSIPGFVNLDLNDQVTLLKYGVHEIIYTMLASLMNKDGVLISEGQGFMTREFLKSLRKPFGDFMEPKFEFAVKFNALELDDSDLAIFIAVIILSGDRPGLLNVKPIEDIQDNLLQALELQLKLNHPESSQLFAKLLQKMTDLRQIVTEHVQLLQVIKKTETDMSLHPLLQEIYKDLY

PPARγ target genes = experiment: qPCR of PPARγ target genes in primary hepatocytes; format: cell-based, mouse; settings: co-incubation with BBR
Description: Tissues or cells were lysed using TRIzol (#1 218 355, Invitrogen, Thermo Fisher Scientific, MA, USA) for subsequent RNA extraction through a series of steps involving chloroform extraction and isopropanol and ethanol precipitation. Reverse transcription and cDNA synthesis were performed using a reverse transcription and cDNA synthesis kit (#639 506, Takara Bio Inc., Kusatsu, Shiga, Japan) to synthesize complementary DNA (cDNA) from […] of RNA. Quantitative real‐time PCR analysis was conducted utilizing SYBR Green pre‐mix (Q111‐02, Vazyme Biotech Co., Ltd, Nanjing, China) and subsequently analyzed employing the Roche real‐time PCR system. The mRNA expression levels were calculated and quantified utilizing the relative standard curve method and subsequently normalized to the expression of the housekeeping gene Gapdh. The primer sequences utilized for qPCR analysis are listed in Table S2 (Supporting Information).

[7] = substrate: CC(=O)Nc1ccc(O)cc1; experiment: Enzyme kinetic study in liver S9, Cyp1a2; format: in vitro ADME, mouse; settings: 37.0 °C
[8] = db/db mice compared to lean littermates after BBR 20 mg·kg^−1 i.g.
[9] = db/db vs lean mice, single 20 mg·kg^−1 i.g.
[10] = 25 mg·kg^−1 gavage once daily, 4 weeks

liver concentration at 24 h, db/db vs lean [1, 8]: significantly higher
plasma concentration-time profile (metabolite production) [1, 8]: delayed production
Molecule: CCc1oc2cc(O)ccc2c1C(=O)c1cc(Br)c(O)c(Br)c1 [6‐OH‐BBR, 6‐hydroxy‐benzbromarone]

metabolism catalyzed by liver S9 fractions ([4]; S9 from db/db mice compared to lean mice): marked reduction
Km at 2 h ([4]; lean littermates of db/db mice, liver S9 from Lean mice): 8.14 µg/mL
Km at 2 h ([4]; liver S9 from db/db mice): 9.24 µg/mL
liver concentration at 2 h post-administration ([1]; db/db mouse livers vs lean littermates, 20 mg·kg^−1 i.g.): notably higher
decrease in clearance rate (CL) [1, 9]: 42.5%
increase in area under the curve (AUC), plasma [1, 9]: 1.75 fold
increase in mean residence time (MRT) [1, 9]: 1.54 fold
increase in plasma half-life (T1/2) [1, 9]: 2.03 fold
liver concentration at 24 h ([1]; liver tissues of both groups (db/db and lean), 20 mg·kg^−1 i.g.): undetectable
nature of BBR binding against the PPARγ agonist rosiglitazone (MST) [6]: competitive
Molecule: CCc1oc2ccccc2c1C(=O)c1cc(Br)c(O)c(Br)c1 [BBR, Benzbromarone]
binding affinity for PPARγ [2]: weak binding affinity
binding affinity for PPARα [3]: weak binding affinity
hepatic steatosis and liver injury (obese mice models): specifically exacerbates
lipid accumulation (intracellular triglyceride, BODIPY lipid droplets) (primary hepatocytes; oleic acid (OA)-treated hepatocytes, 16 h): obviously enhanced
cytotoxicity at dosages chosen for further experiments ([5]; 15 and 30 µM): non‐toxic
IC50 ([5]; Mus musculus, Hepatocyte, read-out: 50% inhibitory concentration (IC50), cell viability, 24 h incubation, CCK8): 80.3 µM
liver weight, serum transaminases, and creatinine levels (db/db mice; [10]): increases
serum triglyceride and non-esterified fatty acid (NEFA) levels (db/db mice; [10]): reductions
fasting plasma glucose levels (db/db mice; 4-week treatment): significantly decreased
glucose tolerance (db/db mice; 4-week treatment): improved
liver triglyceride levels (db/db mice; 4-week treatment): elevation
pyruvate tolerance and insulin sensitivity (db/db mice; 4-week treatment): diminished
hepatotoxicity in the livers of healthy rats (livers of healthy rats): negligible hepatotoxicity

effect of co-incubation on triglyceride levels within BBR-treated hepatocytes (primary hepatocytes): failed to mitigate
Molecule: CCC(=O)NC[C@H](Cc1ccc(OCCc2nc(-c3ccccc3)oc2C)cc1)N/C(C)=C\C(=O)c1ccc(C(F)(F)F)cc1 [GW6471]

The remaining lines, values behind:

Molecule: O=C(Nc1ccccc1)c1cc([N+](=O)[O-])ccc1Cl [GW9662]
effect on BBR-induced upregulation of typical PPARγ target genes (mRNA) (PPARγ target genes): significantly diminished
effect of co-incubation on triglyceride levels within BBR-treated hepatocytes (primary hepatocytes): notable reduction
effect on BBR-mediated exacerbation of hepatic steatosis and liver injury (db/db mice; 1 mg·kg^−1 i.p. with BBR, 4 weeks): markedly mitigated

Molecule: Cc1ccc(Cn2nc(CCCc3ccc(OC(C)(C)C(=O)O)cc3)[nH]c2=O)cc1 [LY518674]
effect of co-incubation on triglyceride levels within BBR-treated hepatocytes (primary hepatocytes): notable reduction

Molecule: O=C(Nc1ccncc1)c1cc([N+](=O)[O-])ccc1Cl [T0070907]
effect of co-incubation on triglyceride levels within BBR-treated hepatocytes (primary hepatocytes): notable reduction

B1: Cyp1a2 (Mus musculus) (protein)
chain: MAFSQYISLAPELLLATAIFCLVFWMVRASRTQVPKGLKNPPGPWGLPFIGHMLTVGKNPHLSLTRLSQQYGDVLQIRIGSTPVVVLSGLNTIKQALVRQGDDFKGRPDLYSFTLITNGKSMTFNPDSGPVWAARRRLAQDALKSFSIASDPTSASSCYLEEHVSKEANHLVSKLQKAMAEVGHFEPVSQVVESVANVIGAMCFGKNFPRKSEEMLNIVNNSKDFVENVTSGNAVDFFPVLRYLPNPALKRFKTFNDNFVLFLQKTVQEHYQDFNKNSIQDITSALFKHSENYKDNGGLIPEEKIVNIVNDIFGAGFDTVTTAITWSILLLVTWPNVQRKIHEELDTVVGRDRQPRLSDRPQLPYLEAFILEIYRYTSFVPFTIPHSTTRDTSLNGFHIPKERCIYINQWQVNHDEKQWKDPFVFRPERFLTNNNSAIDKTQSEKVMLFGLGKRRCIGEIPAKWEVFLFLAILLQHLEFSVPPGVKVDLTPNYGLTMKPGTCEHVQAWPRFSK
notes: liver S9 fractions from db/db mice or their lean littermates; from tissue; host or cells: pooled liver S9 fraction of db/db mice or lean littermates
Km ([7]; other: Cyp1a2, pooled liver S9, Lean): 45.8 µM
Km ([7]; other: Cyp1a2, pooled liver S9, db/db): 32.5 µM
